From article PMC10354055, “An optimized Nurr1 agonist provides disease-modifying effects in Parkinson’s disease models” (Nature Communications, 2023)
Where “and” joins values, the source holds several entries; their conditions need not be identical. Equal values may be shown once.

Columns and labels:
Nor1 = molecular target: T1, Nor1 (Homo sapiens, UniProt Q92570); experiment: Luciferase reporter assay, Nor1 LBD, SK-N-BE(2)C cells; assay type: cell-based; conditions: Fig. 1f; CQ 100 µM, 4A7C-301 20 µM, PGA1 10 µM
T1 construct: using LBD of NR4A subfamily members in SK-N-BE(2)C cells; expressed in transfected cells; host or cells: SK-N-BE(2)C
T1 sequence (Q92570 394-623 limits assumed): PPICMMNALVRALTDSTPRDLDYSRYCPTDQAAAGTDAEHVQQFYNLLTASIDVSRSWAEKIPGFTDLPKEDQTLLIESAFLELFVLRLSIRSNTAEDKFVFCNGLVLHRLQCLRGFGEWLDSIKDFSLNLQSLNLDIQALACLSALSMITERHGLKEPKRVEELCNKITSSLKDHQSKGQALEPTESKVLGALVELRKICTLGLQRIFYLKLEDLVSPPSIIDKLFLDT

Nurr1-LBD = Nurr1-LBD (Homo sapiens, UniProt P43354); experiment: TR-FRET competition assay with HCQFluo; assay type: binding; conditions: Fig. 1i
Sequence of Nurr1-LBD (P43354 360-595 limits assumed, species assumed): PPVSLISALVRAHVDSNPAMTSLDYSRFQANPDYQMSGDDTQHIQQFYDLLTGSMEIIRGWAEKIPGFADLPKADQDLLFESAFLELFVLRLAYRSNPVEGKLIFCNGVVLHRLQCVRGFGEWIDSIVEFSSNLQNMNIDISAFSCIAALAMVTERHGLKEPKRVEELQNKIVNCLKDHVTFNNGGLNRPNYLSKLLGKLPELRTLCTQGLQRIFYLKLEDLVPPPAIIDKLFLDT
Description: TR-FRET assay was performed in PPI Terbium (Tb) detection buffer (PerkinElmer) and contained 0.2 µM of Nurr1-LBD, 0.5 µM of fluorescence-labeled hydroxy-CQ (HCQFluo; Proimaging) and serial concentrations of CQ, 4A7C-301 or RA (10^−4–10^6 nM). Rabbit anti-Nurr1 antibody (3 nM; prepared in our lab) and anti-rabbit IgG-Tb (1:400; Cisbio, 61PARTAF) were included in the assay solution as a donor complex. Assay solutions were loaded in a 384-well OptiPlate™ (PerkinElmer). After 2 h incubation in the dark at room temperature, the FRET signal was measured by excitation at 340 nm and emission at 520 nm for fluorescein and 495 nm for Tb using a VICTOR Nivo plate reader (PerkinElmer). Data were fit using the non-linear regression program in GraphPad Prism version 8.0.2.

N27-A cells [1] = experiment: Cell viability, MTT reduction, MPP+-treated N27-A cells; assay type: cell-based, rat; conditions: Fig. 2a, CQ 100 µM, 4A7C-301 1 µM
MN9D cells [2] = experiment: Cytotoxicity, LDH release, MPP+-treated MN9D cells; assay type: cell-based, mouse
Description: Cells were transfected with Nurr1 subcloned into pcDNA3.1 vector[23] for Nurr1 overexpression (OE). […] Nurr1 OE or KD by transfection was analyzed by Western blot.
Cellular oxidative stress was detected using the DCFDA Cellular ROS Assay Kit (Abcam) according to the manufacturer’s protocol. Briefly, cells seeded in black clear bottom 96 well plate were stained with DCFDA solution (20 µM) for 45 min at 37 °C. […] Cytotoxicity was determined by measuring lactate dehydrogenase (LDH) release into the culture medium using a LDH cytotoxicity detection kit (Roche)[33]. Absorbance was measured at 490 nm with a microplate reader and cytotoxicity was calculated as a percentage (%) relative to 1% TritonX-100 control. Cell viability was determined using 3-(4,5-dimethylthiazol-2-yl)-2,5-diphenyltetrazolium bromide (MTT) as previously described. Briefly, cells were incubated with 5 mg/ml of MTT (Sigma-Aldrich) solution for 3.5 h at 37 °C. MTT formazan crystals were dissolved in 10 times the volume of MTT solvent (4 mM HCl and 0.1% Nonidet P-40 in isopropanol) and the absorbance from the generated blue formazan was measured at 570 nm after 15 min incubation at room temperature. Cell viability was calculated as a percentage (%) of MTT reduction relative to vehicle control.

N27-A cells [3] = experiment: Cellular oxidative stress, DCFDA ROS assay, N27-A cells; assay type: cell-based, rat; conditions: for ROS intensity (fold of control): Fig. S1i, with MPP+, replicates
MN9D cells [4] = experiment: Dopaminergic gene expression (TH, DAT, AADC, VMAT2, c-Ret), qRT-PCR, MN9D cells with MPP+; assay type: cell-based, mouse; conditions: for Relative TH mRNA expression (fold of Cont.): Fig. S5a; for Relative DAT mRNA expression (fold of Cont.): Fig. S5b; for Relative AADC mRNA expression (fold of Cont.): Fig. S5c; for Relative c-Ret mRNA expression (fold of Cont.): Fig. S5e; for Relative VMAT mRNA expression (fold of Cont.): Fig. S5d
Description: Total RNA was extracted using the GeneJET RNA Purification Kit (Thermo Fisher Scientific) and 100 ng of RNA was subjected to cDNA synthesis using Invitrogen Superscript cDNA Synthesis Kit (Invitrogen) according to the manufacturer’s protocol. qRT-PCR was performed using a CFX Connect Real-Time System (Bio-Rad) in a 20 μl volume mixture containing 2X SsoAdvanced Universal SYBR Green Supermix (Bio-Rad), 100 ng/μl of forward and reverse primers, and 1 μl of cDNA sample. Gene expression levels were quantified by the 2^∆∆CT method (Ct of target gene—Ct of glyceraldehyde-3-phosphate dehydrogenase (GAPDH). The following primers were used for qRT-PCR: TH forward: 5′-[…]-3′, reverse: 5′-[…]-3′; DAT forward: 5′-[…]-3′, reverse: 5′-[…]-3′; AADC forward: 5′-[…]-3′, reverse: 5′-[…]-3′; VMAT2 forward: 5′-[…]-3′, reverse: 5′-[…]-3′; c-Ret forward: 5′-[…]-3′, reverse: 5′-[…]-3′; TNFα forward: 5′-[…]-3′; reverse: 5′-[…]-3′; GAPDH, forward 5′-[…]-3′, reverse 5′-[…]-3′.

N27-A cells [5] = experiment: Autophagolysosome (APL) formation assay, mRFP-GFP-LC3, N27-A cells; assay type: cell-based, rat; conditions: Figure 3b; mRFP-GFP-LC3; individual cells (30 per treatment)
Description: HeLa and N27-A cells were transfected with tandem mRFP-GFP-LC3 (Addgene) plasmid using Lipofectamine 2000 (Invitrogen) in 24-well plates. After 24 h, cells were incubated in starvation medium (Earle’s Balanced Salt Solution, EBSS; Lonza) containing bafilomycin A1 (BafA1, 10 nM), CQ (20 µM), or 4A7C-301 (1 µM) for 6 h and then fixed with 4% formaldehyde for fluorescence detection. Images were taken using a KEYENCE microscope and red (mRFP) LC3 dots and yellow (mRFP+GFP) LC3 dots were counted from three independent wells for each treatment group. 10 cells were randomly selected and counted from each well and a total of 30 cells were analyzed for each treatment group in both HeLa and N27-A cells.

CCN1CCN(c2cc(N3CCN(CC)CC3)nc(NCCNc3ccnc4cc(Cl)ccc34)n2)CC1 [4A7C-301, N^1-(4,6-bis(4-ethylpiperazin-1-yl)pyrimidin-2-yl)-N^2-(7-chloroquinolin-4-yl)ethane-1,2-diamine]
Luciferase activity (fold), Nor1 (Nor1): 3.28 fold and 3.108 fold and 3.492 fold
Interaction [HTRF] (Nurr1-LBD; 0.05 µM): 3265.9820 and 3537.6830 and 3401.8330
Interaction [HTRF] (Nurr1-LBD; 0.1 µM): 3598.5100 and 3223.1060 and 3410.8080
Interaction [HTRF] (Nurr1-LBD; 0.5 µM): 3591.7500 and 3214.1330 and 3402.9410
Interaction [HTRF] (Nurr1-LBD; 1 µM): 2993.5610 and 3208.3240 and 3100.9430
Interaction [HTRF] (Nurr1-LBD; 5 µM): 3661.8470 and 3369.4680 and 3515.6580
Interaction [HTRF] (Nurr1-LBD; 10 µM): 3348.5030 and 3240.2560 and 3294.3790
Interaction [HTRF] (Nurr1-LBD; 50 µM): 3293.1070 and 2930.3900 and 3111.7480
Interaction [HTRF] (Nurr1-LBD; 100 µM): 3045.7890 and 3264.7900 and 3155.2890
Interaction [HTRF] (Nurr1-LBD; 200 µM): 3424.3450 and 3220.2860 and 3322.3150
IC50 (Nurr1-LBD; competition with HCQFluo): 108 nM and 100 nM
MTT reduction (%) (N27-A cells [1]; Control): 65.2632% and 62.1053% and 64.2105% and 61.0526%
MTT reduction (%) (N27-A cells [1]; Nurr1 KD): 30.9278% and 29.8969% and 34.0206%
MTT reduction (%) (N27-A cells [1]; Nurr1 OE): 86.5979% and 95.8763% and 87.6289% and 83.5052%
LDH release (%) (MN9D cells [2]; Fig. S1g, with MPP+, conc. 0.1 µM, replicates): 41.8716% and 42.3575% and 42.6815%
LDH release (%) (MN9D cells [2]; Fig. S1g, with MPP+, conc. 0.5 µM, replicates): 39.0371% and 39.604% and 39.28%
LDH release (%) (MN9D cells [2]; Fig. S1g, with MPP+, conc. 1 µM, replicates): 37.6198% and 37.0529% and 37.2958%
LDH release (%) (MN9D cells [2]; Fig. S1g, with MPP+, conc. 5 µM, replicates): 37.2149% and 37.0124% and 37.6198%
LDH release (%) (MN9D cells [2]; Fig. S1g, with MPP+, conc. 10 µM, replicates): 36.486% and 37.8628% and 37.3363%
LDH release (%) (MN9D cells [2]; Fig. S3f, MPP+, Control, CQ 100 µM, 4A7C-301 1 µM): 38.8915% and 36.4082% and 36.6047% and 41.8443%
LDH release (%) (MN9D cells [2]; Fig. S3f, MPP+, Nurr1 KD, CQ 100 µM, 4A7C-301 1 µM): 55.7866% and 55.7395% and 56.0212% and 56.0866%
LDH release (%) (MN9D cells [2]; Fig. S3f, MPP+, Nurr1 OE, CQ 100 µM, 4A7C-301 1 µM): 24.7388% and 23.725% and 24.6956% and 22.8802%
LDH release (%) (MN9D cells [2]; Fig. S3d, with MPP+, 0.1 µM): 43.0575% and 41.9759% and 41.8986%
LDH release (%) (MN9D cells [2]; Fig. S3d, with MPP+, 0.5 µM): 40.7398% and 41.2806% and 41.0489%
LDH release (%) (MN9D cells [2]; Fig. S3d, with MPP+, 1 µM): 39.0016% and 38.0746% and 37.5724%
LDH release (%) (MN9D cells [2]; Fig. S3d, with MPP+, 5 µM): 38.2677% and 37.7656% and 37.302%
LDH release (%) (MN9D cells [2]; Fig. S3d, with MPP+, 10 µM): 35.5638% and 36.4136% and 37.4179%
concentration of maximal efficiency, times lower than CQ (MN9D cells [2]; MN9D cells, MPP+-induced cytotoxicity): ~ 20 times
MPP+-induced ROS levels (in words) (N27-A cells [3]; CQ 100 µM, 4A7C-301 1 µM): significantly reduced
ROS intensity (fold of control) (N27-A cells [3]; Control cells): 1.457 fold of control and 1.389 fold of control and 1.394 fold of control
ROS intensity (fold of control) (N27-A cells [3]; Nurr1 KD cells): 2.059 fold of control and 2.042 fold of control and 2.017 fold of control
ROS intensity (fold of control) (N27-A cells [3]; Nurr1 OE cells): 0.87 fold of control and 0.894 fold of control and 0.877 fold of control
Relative TH mRNA expression (fold of Cont.) (MN9D cells [4]; w/ MPP+): 1.331 fold of Cont. and 1.238 fold of Cont. and 1.4297 fold of Cont.
Relative TH mRNA expression (fold of Cont.) (MN9D cells [4]; w/o MPP+): 2.626 fold of Cont. and 3.055 fold of Cont. and 2.8325 fold of Cont.
Relative DAT mRNA expression (fold of Cont.) (MN9D cells [4]; w/ MPP+): 1.51 fold of Cont. and 1.43 fold of Cont. and 1.594 fold of Cont.
Relative DAT mRNA expression (fold of Cont.) (MN9D cells [4]; w/o MPP+): 3.527 fold of Cont. and 3.949 fold of Cont. and 3.732 fold of Cont.
Relative AADC mRNA expression (fold of Cont.) (MN9D cells [4]; w/ MPP+): 1.175 fold of Cont. and 1.144 fold of Cont. and 1.206 fold of Cont.
Relative AADC mRNA expression (fold of Cont.) (MN9D cells [4]; w/o MPP+): 1.767 fold of Cont. and 1.615 fold of Cont. and 1.689 fold of Cont.
Relative c-Ret mRNA expression (fold of Cont.) (MN9D cells [4]; w/ MPP+): 0.9952 fold of Cont. and 1.121 fold of Cont. and 0.8833 fold of Cont.
Relative c-Ret mRNA expression (fold of Cont.) (MN9D cells [4]; w/o MPP+): 1.827 fold of Cont. and 2.268 fold of Cont. and 2.036 fold of Cont.
Relative VMAT mRNA expression (fold of Cont.) (MN9D cells [4]; w/ MPP+): 1.0229 fold of Cont. and 0.9814 fold of Cont. and 1.066 fold of Cont.
Relative VMAT mRNA expression (fold of Cont.) (MN9D cells [4]; w/o MPP+): 2.085 fold of Cont. and 1.956 fold of Cont. and 2.019 fold of Cont.
dopaminergic gene expression (in words) (MN9D cells [4]; MN9D, decreased by MPP+): significantly rescued
concentration for similar effect, times lower than CQ (MN9D cells [4]; dopaminergic gene expression, MN9D and VM primary cells): 20–40 times
LC3 dots/cell, Red LC3 dots (N27-A cells [5]): 22 dots/cell (5×) and 32 dots/cell and 15 dots/cell and 27 dots/cell (6×) and 21 dots/cell (4×) and 26 dots/cell (2×) and 34 dots/cell and 31 dots/cell (2×) and 19 dots/cell (3×) and 12 dots/cell and 17 dots/cell (2×) and 16 dots/cell and 20 dots/cell
LC3 dots/cell, Yellow LC3 dots (N27-A cells [5]): 9 dots/cell (2×) and 10 dots/cell (3×) and 16 dots/cell (2×) and 11 dots/cell (4×) and 20 dots/cell (2×) and 3 dots/cell (2×) and 4 dots/cell (2×) and 5 dots/cell (3×) and 15 dots/cell and 17 dots/cell and 14 dots/cell (3×) and 6 dots/cell (2×) and 7 dots/cell and 2 dots/cell and 12 dots/cell
